According to publication PMC11381475, “Biopharmaceutical profiling of anti-infective sanggenons from Morus alba root bark for inhalation administration” (International Journal of Pharmaceutics: X, 2024):
Entries after “also recorded” stand apart in the source; their conditions may differ.

What was measured:
[1] = pH-dependent thermodynamic solubility, miniaturized shake-flask method, UPLC-PDA
[2] = UV-metric pKa measurement (SiriusT3); assay type: physicochemical; settings: experimental, SiriusT3, 25 °C, mean ± S.D.
Experimental: Experimental pKa (−log10 of the acid dissociation equilibrium constant) values of SGC and SGD were evaluated using the UV-metric pKa measurement method of the SiriusT3 automated titrator instrument and the corresponding software SiriusT3Control and SiriusT3Refine (Pion Inc., Billerica, USA). The SiriusT3 apparatus uses a deuterium lamp to determine the UV/Vis absorbance spectrum of the test solutions at each pH point. The standard aqueous UV-metric pKa measurement protocol was conducted according to manufacturer instructions. […] This was mixed with 25 μL phosphate buffer (14.7 mM K2HPO4 and 0.15 M KCl in MilliQ water) and diluted with 1.5 mL ionic strength-adjusted water (ISA water ≡ 0.15 M KCl in MilliQ water). The subsequent acid/base titration and measurement of UV absorbance was automatically performed by the SiriusT3 at 25.0 ± 0.5 °C. […] Turbidity was monitored by a turbidity sensor to ensure the absence of precipitation of the test compounds during the experiment, since accurate pKa measurements are limited to fully dissolved substances. In case turbidity occurred, individual titrations were not used for further analysis, resulting in a total of 11 analysable titrations across the 5 replicate samples for both SGC and SGD.

Calu-3 cells [3] = assay: Calu-3 cell viability, MTT assay; settings: MTT
[4] = mice, doses up to 100 mg/kg, ref Langeder et al., 2023b; cited from earlier work
[5] = potentiometric logP, water-octanol (SiriusT3); assay type: physicochemical; settings: experimental, mean ± S.D., n = 3
Experimental: LogP (partition coefficient) evaluation was performed via SiriusT3. The potentiometric logP measurement relies on assessing the partition profile of the test substance within a two-phase water-octanol solvent system. Changes in the relative volume ratio of octanol to water lead to shifts in the apparent pKa, resulting from the partitioning between non-ionised and ionised forms. LogP values were then estimated based on these assessments.

SARS-CoV-2 = tested on: SARS-CoV-2; set-up: method as in Wasilewicz et al., 2023; settings: reported to be based on inhibition of the viral main protease, ref Wasilewicz et al., 2023; read-out: anti-SARS-CoV-2 activity IC50; cited from earlier work
Calu-3 monolayer [6] = assay: MTT assay on Calu-3 monolayer after permeability study; assay type: cell-based, human; settings: after B-A permeability study
Experimental: To assess potential cytotoxic effects on the monolayer, cell culture medium (10% FBS, 1% P/S) containing 0.45 mg/mL MTT reagent was added to the inserts (300 µL) and wells (1500 µL). Cells treated with fluorescein (40 µg/mL) served as a control. Samples were then incubated for 3.5 hours at 37°C. Following incubation, the MTT solution was removed, and DMSO was added to dissolve the formazan crystals (300 µL for inserts; 1500 µL for wells). The plates were incubated on a shaking platform at 200 rpm in the absence of light for 30 minutes. Subsequently, 100 µL samples from each well were pipetted into a 96-well plate, and the absorbance was measured at 570 nm using an Epoch 2 spectrophotometer.

[7] = control experiments for serum binding and adsorption to plastic
Calu-3 monolayer [8] = assay: TEER of Calu-3 monolayer before and after permeability study
Calu-3 monolayer [9] = assay: bidirectional permeability across Calu-3 monolayer; settings: for concentration in the acceptor chamber (B-A): n = 3
Calu-3 cells [10] = assay: Calu-3 cell uptake, FIA-TOFMS; assay type: in vitro ADME, human; settings: 50 µg/mL; for Concentration [pg/µL] 1 in cell extract / Normalized concentration [pg/cell] 1: replicate 1; for Concentration [pg/µL] 2 in cell extract / Normalized concentration [pg/cell] 2: replicate 2; for Concentration [pg/µL] 3 in cell extract / Normalized concentration [pg/cell] 3: replicate 3
Experimental: At 4, 12, and 24 h after addition, cell extracts were generated in triplicates. To that end, the medium was aspirated from the respective wells, and cells were washed with pre-warmed ammonium carbonate solution (75 mM, pH 7.4, 37 °C). Immediately after removal of the wash solvent, 300 μL cold extraction solvent (40:40:20 acetonitrile:methanol:water, −20 °C) was added per well to lyse cells in situ and stop the enzymatic activity. The bottom of each well was subsequently scraped and the cell extracts were transferred to 96-well storage plates and stored at −80 °C until analysis. […] Quantification of SGC and SGD was performed using flow-injection time-of-flight mass spectrometry (FIA-TOFMS) in negative ion mode as described previously ([Fuhrer et al., 2011]). SGC and SGD signals were identified by matching accurate masses (for both [M-H]- at 707.2127 m/z). To account for possible influences of the complex matrix in the cell extract samples, a matrix-matched series of calibration samples were prepared, in which increasing concentrations of SGC were spiked into extracts of cells that had not previously been treated with either SGC or SGD. The calibration samples were injected alongside the cell extract samples and used to establish a calibration function using linear regression. The ion intensities measured were converted into SGC and SGD concentrations and normalized by the cell number in each sample, which was determined at each time point in separate cell cultures using trypan blue staining and cell counting in a Thermo Fisher Countess II Automated cell counter after trypsin-mediated cell detachment. This procedure eventually yielded estimates of SGC and SGD contents in pg/cell.

16HBE14o- cells = settings: cited from earlier work
in vitro = settings: human
Calu-3 cells [11] = settings: cited from earlier work
NHBE cells = settings: cited from earlier work

For sanggenon D [SGD], the “pH 1.2 solubility” value ([1]; compound within extract MA21, pH 1.2) was “< LOQ”, the “pH 4.5 solubility” value ([1]; compound within extract MA21, pH 4.5) was “< LOQ” and the “pH 6.8 solubility” value ([1]; compound within extract MA21, pH 6.8) was “< LOQ”. For the same compound, the “pH 7.4 solubility” value ([1]; compound within extract MA21, pH 7.4) was “< LOQ”, the “pH 1.2 solubility” value ([1]; compound within extract MA60, pH 1.2) was 20.6 µg/mL and the “pH 4.5 solubility” value ([1]; compound within extract MA60, pH 4.5) was 19.7 µg/mL. The “pH 6.8 solubility” value ([1]; compound within extract MA60, pH 6.8) was 56.8 µg/mL, the “pH 7.4 solubility” value ([1]; compound within extract MA60, pH 7.4) was 94.9 µg/mL and the “pH 1.2 solubility” value ([1]; isolated compound, HCl buffer pH 1.2, 24 h, 24 °C) was 111 µg/mL. The “pH 4.5 solubility” value ([1]; isolated compound, acetate buffer pH 4.5, 24 h, 24 °C) was 121 µg/mL, the “pH 6.8 solubility” value ([1]; isolated compound, phosphate buffer pH 6.8, 24 h, 24 °C) was 304 µg/mL and the “pH 7.4 solubility” value ([1]; isolated compound, phosphate buffer pH 7.4, 24 h, 24 °C) was 493 µg/mL. For the same compound, the “pKa 1” value [2] was 3.27 ± 0.37, the “pKa 2” value [2] was 6.37 ± 0.13 and the “pKa 3” value [2] was 7.25 ± 0.32. For the same compound, the “pKa 4” value [2] was 7.99 ± 0.26, the “pKa 5” value [2] was 8.99 ± 0.08 and the “pKa 6” value [2] was 9.94 ± 0.04. The “pKa 7” value [2] was 10.78 ± 0.01, the “pKa 8” value [2] was 12.04 ± 0.07 and the cytotoxic effects (Calu-3 cells [3]; 50 μg/mL, 4-h and 12-h incubation) was “no cytotoxic effects were observed”. The CC50 (Calu-3 cells [3]; Calu-3 cells, 24 h exposure) was 120.5 µg/mL, the “serum and tissue concentrations after oral administration” value [4] was “low serum and tissue concentrations” and the logP [5] was 2.92 ± 0.07. For the same compound, the IC50 (SARS-CoV-2) was 13.9 µM, the “cytotoxic effects on Calu-3 monolayer after permeability study (MTT)” value (Calu-3 monolayer [6]) was “Neither batch 1 nor batch 2 showed a decrease in cell viability; also recorded: no cytotoxic effects” and the “binding to serum proteins” value [7] was “no indication that SGC or SGD bind to serum proteins”. The “change in TEER during permeability study, B-A direction” value (Calu-3 monolayer [8]; 20 µg/mL in basolateral chamber, 2 h, Calu-3 batch 1) was “significant decrease in TEER values; also recorded: loss in TEER”, the “TEER after 24 h of incubating with medium at 37 °C” value (Calu-3 monolayer [8]; B-A directed test wells after permeability study) was “showed a recovery in TEER; also recorded: recovery to initial values” and the “amount detected in the acceptor chamber (B-A)” value (Calu-3 monolayer [9]; B-A, 2 h, isolated SGD or extracts) was less than 0.6%. For the same compound, the “concentration in the acceptor chamber (B-A)” value (“concentration … (B-A)” below) (Calu-3 monolayer [9]; SGD after applying MA21 600 μg/mL, B-A, 2 h) was 7.9 ± 4.2 ng/mL, the “concentration … (B-A)” value (Calu-3 monolayer [9]; SGD after applying MA60 100 μg/mL, B-A, 2 h) was 10.6 ± 5.7 ng/mL and the “permeability across intact Calu-3 monolayers” value (Calu-3 monolayer [9]; abstract statement) was “no measurable permeability”. The “evidence for permeability of SGC or SGD” value (Calu-3 monolayer [9]; applied as extracts MA60 (100 μg/mL) and MA21 (600 μg/mL), 2 h) was “Neither by applying the isolated compounds nor the extracts MA60 and MA21, any evidence for the permeability of SGC or SGD was detectable”, the “concentration … (B-A)” value (Calu-3 monolayer [9]; isolated SGD 20 μg/mL applied, B-A, 2 h) was 35.4 ± 15.1 ng/mL and the “detection in the acceptor chamber after 2 h of incubation (A-B direction)” value (Calu-3 monolayer [9]; isolated compound 20 μg/mL, A-B) was “could not be detected”. For the same compound, the “intracellular content, Mean [pg/cell]” value (Calu-3 cells [10]; 4 h) was 0.3 ± 0.2 pg/cell, the “Concentration [pg/µL] 1 in cell extract” value (Calu-3 cells [10]; 4 h) was 449 pg/µL and the “Normalized concentration [pg/cell] 1” value (Calu-3 cells [10]; 4 h) was 0.23 pg/cell. The “Concentration [pg/µL] 2 in cell extract” value (Calu-3 cells [10]; 4 h) was 281 pg/µL, the “Normalized concentration [pg/cell] 2” value (Calu-3 cells [10]; 4 h) was 0.14 pg/cell and the “Concentration [pg/µL] 3 in cell extract” value (Calu-3 cells [10]; 4 h) was 1158 pg/µL. For the same compound, the “Normalized concentration [pg/cell] 3” value (Calu-3 cells [10]; 4 h) was 0.60 pg/cell, the “intracellular content, Mean [pg/cell]” value (Calu-3 cells [10]; 4 h, listed as Sanggenon D) was 0.32 pg/cell and the “intracellular content, Mean [pg/cell]” value (Calu-3 cells [10]; 12 h) was 0.54 pg/cell. The “Concentration [pg/µL] 1 in cell extract” value (Calu-3 cells [10]; 12 h) was 1137 pg/µL, the “Normalized concentration [pg/cell] 1” value (Calu-3 cells [10]; 12 h) was 0.57 pg/cell and the “Concentration [pg/µL] 2 in cell extract” value (Calu-3 cells [10]; 12 h) was 1116 pg/µL. The “Normalized concentration [pg/cell] 2” value (Calu-3 cells [10]; 12 h) was 0.55 pg/cell, the “Concentration [pg/µL] 3 in cell extract” value (Calu-3 cells [10]; 12 h) was 1014 pg/µL and the “Normalized concentration [pg/cell] 3” value (Calu-3 cells [10]; 12 h) was 0.50 pg/cell. For the same compound, the “intracellular content, Mean [pg/cell]” value (Calu-3 cells [10]; 24 h) was 0.69 pg/cell, the “Concentration [pg/µL] 1 in cell extract” value (Calu-3 cells [10]; 24 h) was 1552 pg/µL and the “Normalized concentration [pg/cell] 1” value (Calu-3 cells [10]; 24 h) was 0.59 pg/cell. The “Concentration [pg/µL] 2 in cell extract” value (Calu-3 cells [10]; 24 h) was 2206 pg/µL, the “Normalized concentration [pg/cell] 2” value (Calu-3 cells [10]; 24 h) was 0.84 pg/cell and the “Concentration [pg/µL] 3 in cell extract” value (Calu-3 cells [10]; 24 h) was 1671 pg/µL. The “Normalized concentration [pg/cell] 3” value (Calu-3 cells [10]; 24 h) was 0.63 pg/cell.
In the case of `COCCc1ccc(OCC(O)CNC(C)C)cc1` (stereo not drawn) [metoprolol], the Papp (16HBE14o- cells) is listed as 24.5 ± 2.5 × 10^−6 cm/s, the Papp A→B at 2 h, 500 μM (in vitro) is listed as 25.4 ± 6.9 ×10⁻⁶ cm/s and the Papp B→A at 2 h, 500 μM (in vitro) is listed as 23.3 ± 4.9 ×10⁻⁶ cm/s. The Papp (Calu-3 cells [11]) was 10.3 ± 0.0 × 10^−6 cm/s and the Papp (NHBE cells) was 11.3 ± 0.7 × 10^−6 cm/s.
